Experimental data as given in ChEMBL document CHEMBL5728191, “Inhibitors of cyclin-dependent kinase 7 (CDK7)” (2020).

Target: CDK7/Cyclin H/MNAT1 (Homo sapiens, UniProt P50613)
Experiment: Inhibition of Kinase Activity: Compounds of the invention were assayed for activity against a variety of different kinases.
Type: protein-complex assay

Sequence of CDK7/Cyclin H/MNAT1 (P51946 whole entry): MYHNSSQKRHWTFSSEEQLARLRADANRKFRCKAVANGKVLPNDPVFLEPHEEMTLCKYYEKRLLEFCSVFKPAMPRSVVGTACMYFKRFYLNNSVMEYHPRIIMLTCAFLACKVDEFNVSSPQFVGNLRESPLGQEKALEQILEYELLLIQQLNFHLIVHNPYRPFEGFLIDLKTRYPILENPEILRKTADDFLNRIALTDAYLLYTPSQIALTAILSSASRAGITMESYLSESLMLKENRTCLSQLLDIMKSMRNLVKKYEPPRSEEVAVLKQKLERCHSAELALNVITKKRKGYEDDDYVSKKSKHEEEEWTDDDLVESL
Sequence of CDK7/Cyclin H/MNAT1 (P50613 whole entry): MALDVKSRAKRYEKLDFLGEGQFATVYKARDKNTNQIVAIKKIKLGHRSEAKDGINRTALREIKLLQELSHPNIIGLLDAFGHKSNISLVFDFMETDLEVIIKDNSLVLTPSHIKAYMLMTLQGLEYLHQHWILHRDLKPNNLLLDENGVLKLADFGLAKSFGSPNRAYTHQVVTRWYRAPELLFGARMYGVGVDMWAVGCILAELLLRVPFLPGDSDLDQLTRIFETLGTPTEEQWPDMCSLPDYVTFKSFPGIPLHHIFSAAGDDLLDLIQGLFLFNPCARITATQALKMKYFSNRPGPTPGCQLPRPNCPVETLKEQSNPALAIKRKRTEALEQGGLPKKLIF
Sequence of CDK7/Cyclin H/MNAT1 (P51948 whole entry, further chain): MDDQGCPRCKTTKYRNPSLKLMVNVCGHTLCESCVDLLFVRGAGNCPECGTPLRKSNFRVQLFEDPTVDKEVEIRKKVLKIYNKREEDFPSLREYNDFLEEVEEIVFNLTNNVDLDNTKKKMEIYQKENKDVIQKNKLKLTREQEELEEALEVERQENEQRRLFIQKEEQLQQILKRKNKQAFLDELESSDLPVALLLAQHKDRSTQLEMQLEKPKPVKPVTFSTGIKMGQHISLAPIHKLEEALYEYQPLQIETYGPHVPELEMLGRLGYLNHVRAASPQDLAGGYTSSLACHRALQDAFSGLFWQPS

IC50: > 500 nM
Compound: C=CC(=O)Nc1ccc(C(=O)Nc2nn(C)c3c2CN(C(=O)NC(C)CN(C)C)C3(C)C)cc1 (stereo unspecified)
